The values below come from patent US20220127247A1, “N-(PYRIDIN-2-YL)PYRIDINE-SULFONAMIDE DERIVATIVES AND THEIR USE IN THE TREATMENT OF DISEASE” (NOVARTIS AG, priority 2019, published 2022).

Test [1] has as its target T1, delF508-CFTR (Homo sapiens, UniProt P13569, DEL508-508).
T1 construct: expressed in transfected cells
Nature of the test: Measurement of delF508-CFTR-HRP surface expression in CFBE41o- cells. In kind it is cell-based. Conditions: for EC50: HRP-tagged delF508-CFTR in CFBE41o- cells, 24 h with compound, luminescence, 10-point curve, top 10 μM; for Emax: efficacy relative to reference compound 3-(6-(1-(2,2-difluorobenzo[d][1,3]dioxol-5-yl)cyclopropane-1-carboxamido)-3-methylpyridin-2-yl)benzoic acid, CFBE41o- cells, 24 h, read-out: DelF508-CFTR-HRP Amax %. In short, it runs like this:
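CFBE41o- cells stably expressing delF508-CFTR with HRP in the fourth extracellular loop, induced with 500 ng/mL doxycycline for 48 h, then treated with compound (top 10 μM, 10-point 3-fold) for 24 h at 37° C. Surface HRP detected by luminescence with cell-impermeant substrate; EC50 from logistic fit of triplicates, normalized to lowest concentration.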

The target of test [2] is T1, delF508-CFTR. In words: delF508-CFTR functional activity in primary human bronchial epithelial cells (HBECs), Multi-Transepithelial Clamp Circuit (MTECC-24) assay. The class given is cell-based. As to conditions: for EC50: primary human delF508-CFTR bronchial epithelial cells, 24 h with compound, equivalent short circuit current (Ieq), forskolin plus potentiator, mean of at least two replicates, read-out: MTECC24-CFHBEC EC50; for MTECC24-CFHBEC Amax %: test compound added 24 h before assay, with potentiator (S)-3-amino-6-methoxy-N-(3,3,3-trifluoro-2-hydroxy-2-methylpropyl)-5-(trifluoromethyl)picolinamide, relative to 2 μM 3-(6-(1-(2,2-difluorobenzo[d][1,3]dioxol-5-yl)cyclopropane-1-carboxamido)-3-methylpyridin-2-yl)benzoic acid + 0.5 μM N-(2,4-di-tert-butyl-5-hydroxyphenyl)-4-oxo-1,4-dihydroquinoline-3-carboxamide. The source says: Measurement of delF508-CFTR Functional Activity in Primary Human Bronchial Epithelial Cells (HBECs) Using Multi-Transepithelial Clamp Circuit (MTECC-24) Assay
This assay measures the functional activity of the CFTR channel (Chloride ion transport) in patient derived primary human bronchial epithelial cells with forskolin activation and in the presence of the CFTR corrector/potentiator combination.
Primary human delF508-CFTR bronchial epithelial cells were and cultured according to previously established methods (Neuberger, T. et, al., Methods in Molecular Biology, 2011, 741, pp 39-54). Briefly, before thawing the HBEC cells, T25 flasks were coated with 2 mL of 3T3 conditioned media (MTI-GlobalStem, Cat #GSM9100) for at least 12 hours in 37° C. CO2 incubator. 1.7×10^5 cells were seeded into one T25 flask with 5 mL of HBE growth media (BEBM with supplements (Lonza, Cat #CC-3170) with 10 nM of retinoic acid (Sigma, Cat #R-2625) and 1% of PSA (Hyclone, Cat #SV30079.01). Media was changed every day till the cells were 100% confluent. Cells were seeded into T75 flasks (pre-coated with 5 mL of 3T3 conditioned media for more than 12 hrs) at 4.95×10^5 cells/T75 flask in 15 mL of HBE growth media. Flasks were fed everyday with fresh HBE growth media until the cells were confluent. 24-well transwell plates (Corning, Cat #3378) were coated with 3T3 conditioned media (70 μL on top of the filter, 350 μL to the bottom of the well) overnight in the 37° C. CO2 incubator. Cells were seeded in the pre-coated 24-well transwell plates at 1.7×10^5 cell/well with 700 μL of growth media at the bottom of the well and 200 μL of growth media at the top of the filter. After 24 hrs, cells were switched into HBE differentiation media ((DMEM/F12 (Gibco, Cat #11330-032) supplement with 2% Ultroser G (Pall, Cat #15950-017), 2% of Fetal Clone II (Hyclone, Cat #SH30066.03), 0.25% Bovine Brain Extract (Lonza, Cat #CC-4098), 1% of PSA, 2.5 μg/mL of Insulin (Sigma, Cat #19278), 20 nM of Hydrocortisone (Sigma, Cat #H0888), 500 nM of Triiodothyronine (Sigma, Cat #T6397), 2.5 μg/mL of Transferrin (Sigma, Cat #T8158), 250 nM of Ethanolamine (Sigma, Cat #E0135), 1.5 μM of Epinephrine (Sigma, Cat #E4250), 250 nM of Phosphoethanolamine (Sigma, Cat #P0503), 10 nM of retinoic acid)) with 200 μL on top of the filter (apical side) and 700 μL at the bottom of the well (basolateral side). Cells were fed every other day with the differentiation media. After 4 days, cells were exposed to air/liquid interface. Then cells were fed every other day for 4 weeks before fully differentiated.
Cells were washed with 3 mM DTT in PBS at 70 ul/well for 30 min at 37° C. 6 days before the assay. 3 days before the assay, cells were washed again with PBS at 70 ul/well for 30 min at 37° C. Then cells were treated with compound for 24 hrs before the assay.
Following 24 hr treatment with compound, cells were transferred into plates containing 750 ul of assay media on basolateral side and 250 ul on apical side (Assay medium: F-12 Coon's modified, 20 mM HEPES pH7.4 with TRIS Base, No FCS or bicarbonate). The plates wee then transferred to the heated plate compartments (basolateral buffer temperature ˜36.5° C. on the heating block) of the TECC24 system for 45 mins prior to measurements.
Modulators were added sequentially as follows while the TECC24 instrument recorded the equivalent short circuit current (Ieq):
Prior to dilution into assay medium the stocks were as follows: • Benzamil stock: 10 mM in DMSO • Forskolin Stock: 50 mM in DMSO • N-(2,4-di-tert-butyl-5-hydroxyphenyl)-1,4-dihydro-4-oxoquinoline-3-carboxamide: 50 mM in DMSO • (S)-3-amino-6-methoxy-N-(3,3,3-trifluoro-2-hydroxy-2-methylpropyl)-5-(trifluoromethyl)picolinamide: 50 mM stock 100% DMSO • Bumetanide stock: 20 mM in EtOH
The data was normalized using the median signal from wells treated with 0.1% DMSO as a baseline. Curve fitting and EC50 calculations were performed using the following equation: […]

T1 sequence (P13569 with tags, fused parts or gaps DEL508-508): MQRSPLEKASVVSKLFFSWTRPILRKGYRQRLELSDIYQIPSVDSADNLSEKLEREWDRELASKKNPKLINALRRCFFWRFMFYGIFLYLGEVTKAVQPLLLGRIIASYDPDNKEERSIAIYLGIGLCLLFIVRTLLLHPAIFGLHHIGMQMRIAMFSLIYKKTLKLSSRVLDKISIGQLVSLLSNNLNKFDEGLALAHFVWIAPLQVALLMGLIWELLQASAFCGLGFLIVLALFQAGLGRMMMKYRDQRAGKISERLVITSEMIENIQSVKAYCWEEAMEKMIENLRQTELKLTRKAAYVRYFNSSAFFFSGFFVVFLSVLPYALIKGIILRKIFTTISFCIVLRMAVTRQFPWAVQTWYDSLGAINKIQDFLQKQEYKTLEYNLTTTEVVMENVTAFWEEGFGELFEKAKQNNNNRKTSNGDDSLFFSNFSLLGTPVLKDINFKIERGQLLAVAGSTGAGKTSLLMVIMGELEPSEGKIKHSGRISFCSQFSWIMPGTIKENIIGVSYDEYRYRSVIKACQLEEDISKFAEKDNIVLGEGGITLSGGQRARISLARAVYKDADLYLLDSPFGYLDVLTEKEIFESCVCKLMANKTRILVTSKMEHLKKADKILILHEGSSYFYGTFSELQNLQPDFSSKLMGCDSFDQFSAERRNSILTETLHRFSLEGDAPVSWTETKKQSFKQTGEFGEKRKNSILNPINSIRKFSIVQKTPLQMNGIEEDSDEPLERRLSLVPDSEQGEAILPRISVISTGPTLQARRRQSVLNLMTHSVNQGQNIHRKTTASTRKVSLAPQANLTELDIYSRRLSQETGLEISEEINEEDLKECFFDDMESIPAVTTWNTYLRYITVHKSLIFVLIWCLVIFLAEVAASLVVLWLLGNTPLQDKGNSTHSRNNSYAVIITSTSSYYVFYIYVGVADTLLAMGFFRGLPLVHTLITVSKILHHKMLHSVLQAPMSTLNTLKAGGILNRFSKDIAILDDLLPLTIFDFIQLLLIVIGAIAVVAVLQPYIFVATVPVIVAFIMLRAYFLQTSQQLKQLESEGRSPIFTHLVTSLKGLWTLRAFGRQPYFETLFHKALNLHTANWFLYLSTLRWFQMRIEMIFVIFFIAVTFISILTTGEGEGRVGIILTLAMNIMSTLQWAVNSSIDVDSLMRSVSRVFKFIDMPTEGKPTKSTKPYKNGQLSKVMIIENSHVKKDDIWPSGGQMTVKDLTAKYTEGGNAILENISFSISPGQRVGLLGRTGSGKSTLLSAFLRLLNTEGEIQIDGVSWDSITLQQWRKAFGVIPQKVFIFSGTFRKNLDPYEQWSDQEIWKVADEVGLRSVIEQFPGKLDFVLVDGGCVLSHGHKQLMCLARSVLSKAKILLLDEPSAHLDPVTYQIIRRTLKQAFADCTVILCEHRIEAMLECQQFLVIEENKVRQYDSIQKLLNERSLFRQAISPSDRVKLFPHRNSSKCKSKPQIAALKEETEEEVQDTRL

`Cc1ccccc1-c1nc(NS(=O)(=O)c2cccc(N(CCCC(=O)O)CC3CC3)n2)ccc1C(F)(F)F` [Compound 103, 4-((cyclopropylmethyl)(6-(N-(6-(o-tolyl)-5-(trifluoromethyl)pyridin-2-yl)sulfamoyl)pyridin-2-yl)amino)butanoic Acid]: the EC50 in test [1] is 1430 nM. For the same molecule, in test [2], the half-maximal effective concentration (EC50) is 73 nM and the “MTECC24-CFHBEC Amax %” value amounted to 142%.
With `CCc1ccc(F)cc1-c1nc(NS(=O)(=O)c2cccc(N(CC)CCCC(=O)O)n2)ccc1C(F)(F)F` [Compound 110, 4-(ethyl(6-(N-(6-(2-ethyl-5-fluorophenyl)-5-(trifluoromethyl)pyridin-2-yl)sulfamoyl)pyridin-2-yl)amino)butanoic Acid], the concentration for a half-maximal effect (EC50) in test [1] is 1030 nM. In test [2], the EC50 worked out at 6 nM and the “MTECC24-CFHBEC Amax %” value turned out to be 182%.
`CCN(CCCC(=O)O)c1cccc(S(=O)(=O)Nc2ccc(C(F)(F)F)c(-c3ccccc3C)n2)n1` [Compound 114, 4-(ethyl(6-(N-(6-(o-tolyl)-5-(trifluoromethyl)pyridin-2-yl)sulfamoyl)pyridin-2-yl)amino)butanoic Acid]: in test [1], the half-maximal effective concentration (EC50) came to 1680 nM. In addition, in test [2], the half-maximal effective concentration (EC50) turned out to be 101 nM and the “MTECC24-CFHBEC Amax %” value came to 211%.
On to `CCN(CCCC(=O)O)c1cccc(S(=O)(=O)Nc2ccc(C(F)(F)F)c(-c3cc(F)ccc3C)n2)n1` [Compound 115, 4-(ethyl(6-(N-(6-(5-fluoro-2-methylphenyl)-5-(trifluoromethyl)pyridin-2-yl)sulfamoyl)pyridin-2-yl)amino)butanoic Acid], for which the concentration giving a half-maximal response (EC50) in test [1] amounted to 1510 nM. Besides, in test [2], the concentration giving a half-maximal response (EC50) is 70 nM and the “MTECC24-CFHBEC Amax %” value was found to be 146%.
As to `Cc1ccccc1-c1nc(NS(=O)(=O)c2cccc(N(CCC(=O)O)C3CC3)n2)ccc1C(F)(F)F` [Compound 118, 3-(cyclopropyl(6-(N-(6-(o-tolyl)-5-(trifluoromethyl)pyridin-2-yl)sulfamoyl)pyridin-2-yl)amino)propanoic Acid], in test [1], the EC50 is 1850 nM and the Emax came to 563%. Also, in test [2], the EC50 stood at 270 nM and the “MTECC24-CFHBEC Amax %” value amounted to 151%.
Take `Cc1ccccc1-c1nc(NS(=O)(=O)c2cccc(N(CCCC(=O)O)C3CC3)n2)ccc1C(F)(F)F` [Compound 125, 4-(cyclopropyl(6-(N-(6-(o-tolyl)-5-(trifluoromethyl)pyridin-2-yl)sulfamoyl)pyridin-2-yl)amino)butanoic Acid]: in test [1], the concentration giving a half-maximal response (EC50) came out at 1360 nM and the Emax came out at 643%. Further, in test [2], the half-maximal effective concentration (EC50) was found to be 422 nM and the “MTECC24-CFHBEC Amax %” value is given as 114%.
Take `Cc1ccc(F)cc1-c1nc(NS(=O)(=O)c2cccc(N(CCC(=O)O)CC(C)C)n2)ccc1C(F)(F)F` [Compound 126, 3-((6-(N-(6-(5-fluoro-2-methylphenyl)-5-(trifluoromethyl)pyridin-2-yl)sulfamoyl)pyridin-2-yl)(isobutyl)amino)propanoic Acid]: the EC50 in test [1] came to 970 nM. In test [2], the EC50 stood at 14 nM and the “MTECC24-CFHBEC Amax %” value amounted to 207%.
With `Cc1ccc(F)cc1-c1nc(NS(=O)(=O)c2cccc(N(CCCC(=O)O)CC(C)C)n2)ccc1C(F)(F)F` [Compound 127, 4-((6-(N-(6-(5-fluoro-2-methylphenyl)-5-(trifluoromethyl)pyridin-2-yl)sulfamoyl)pyridin-2-yl)(isobutyl)amino)butanoic Acid], the half-maximal effective concentration (EC50) in test [1] is 720 nM. For the same molecule, in test [2], the EC50 is 21 nM and the “MTECC24-CFHBEC Amax %” value is listed as 247%.
Consider `Cc1ccccc1-c1nc(NS(=O)(=O)c2cccc(N(CCC(=O)O)CC(C)C)n2)ccc1C(F)(F)F` [Compound 128, 3-(isobutyl(6-(N-(6-(o-tolyl)-5-(trifluoromethyl)pyridin-2-yl)sulfamoyl)pyridin-2-yl)amino)propanoic Acid], for which the EC50 in test [1] is 1110 nM. For the same molecule, in test [2], the EC50 was found to be 31 nM and the “MTECC24-CFHBEC Amax %” value was 277%.
The matching figures for `Cc1ccccc1-c1nc(NS(=O)(=O)c2cccc(N(CCCC(=O)O)CC(C)C)n2)ccc1C(F)(F)F` [Compound 129, 4-(isobutyl(6-(N-(6-(o-tolyl)-5-(trifluoromethyl)pyridin-2-yl)sulfamoyl)pyridin-2-yl)amino)butanoic Acid]: 1080 nM, 154 nM and 83%.
Turning to `CCCN(CCCC(=O)O)c1cccc(S(=O)(=O)Nc2ccc(C(F)(F)F)c(-c3cc(F)ccc3C)n2)n1` [Compound 131, 4-((6-(N-(6-(5-fluoro-2-methylphenyl)-5-(trifluoromethyl)pyridin-2-yl)sulfamoyl)pyridin-2-yl)(propyl)amino)butanoic Acid], the concentration giving a half-maximal response (EC50) in test [1] turned out to be 1380 nM; in test [2], 327 nM. For the same molecule, the “MTECC24-CFHBEC Amax %” value in test [2] is 95%.
Consider `CCCN(CCCC(=O)O)c1cccc(S(=O)(=O)Nc2ccc(C(F)(F)F)c(-c3ccccc3C)n2)n1` [Compound 132, 4-(propyl(6-(N-(6-(o-tolyl)-5-(trifluoromethyl)pyridin-2-yl)sulfamoyl)pyridin-2-yl)amino)butanoic Acid], for which the EC50 in test [1] came to 1580 nM. Besides, in test [2], the EC50 turned out to be 95 nM and the “MTECC24-CFHBEC Amax %” value is listed as 232%.
As to `Cc1ccccc1-c1nc(NS(=O)(=O)c2cccc(N(C)CC3(C(=O)O)CCOCC3)n2)ccc1C(F)(F)F` [Compound 133, 4-((methyl(6-(N-(6-(o-tolyl)-5-(trifluoromethyl)pyridin-2-yl)sulfamoyl)pyridin-2-yl)amino)methyl)tetrahydro-2H-pyran-4-carboxylic Acid], in test [1], the half-maximal effective concentration (EC50) was found to be 1920 nM and the Emax is 547%. Besides, in test [2], the EC50 was 901 nM and the “MTECC24-CFHBEC Amax %” value came to 108%.
Regarding `Cc1ccccc1-c1nc(NS(=O)(=O)c2cccc(N(CCCC(=O)O)CCC(F)(F)F)n2)ccc1C(F)(F)F` [Compound 134, 4-((6-(N-(6-(o-tolyl)-5-(trifluoromethyl)pyridin-2-yl)sulfamoyl)pyridin-2-yl)(3,3,3-trifluoropropyl)amino)butanoic Acid], the values for the concentration giving a half-maximal response (EC50) in test [1] and in test [2] were 1370 nM and 114 nM, respectively. Moreover, in test [2], the “MTECC24-CFHBEC Amax %” value was determined as 189%.

A word on the EC50: it is the concentration at which the effect is half-maximal.
